Patent US9168281B2, “Kit for treating a wound” (priority 2011, dated 2015)

Legend:
Assay in all cases: Phenol Red Dextrose broth growth test of product containing CPC
Type in all cases: cell-based
Conditions in all cases: 37° C., 24 hours
Proteus vulgaris = test system: Proteus vulgaris
Method: (§1) Phenol Red Dextrose broth tubes were prepared and a small loop of an organism cultured in peptone broth for 24 hours at 37° C. was used to inoculate the tubes in duplicate to a series of ten. […] The inoculated tubes were incubated at a temperature of 37° C. for 24 hours and growth of organism assessed compared to an inoculated tube without presence of product.

Staph aureus (MRSA) = test system: Staph aureus (MRSA)
Method: as §1

Staph aureus (non MRSA) = test system: Staph aureus (non MRSA)
Method: as §1

Candida albicans = test system: Candida albicans
Method: as §1

Strep pyogenes = test system: Strep pyogenes
Method: as §1

P. aeruginosa = test system: P. aeruginosa
Method: as §1

Strep equi = test system: Strep equi
Method: as §1

Measured: growth of organism

CCCCCCCCCCCCCCCC[n+]1ccccc1 [CPC, cetyl pyridinium chloride]
n/g: Proteus vulgaris; 0.1 mL CPC (0.004% vol. comp) | Proteus vulgaris; 0.2 mL CPC (0.008% vol. comp) | Proteus vulgaris; 0.3 mL CPC (0.016% vol. comp) | Proteus vulgaris; 0.4 mL CPC (0.032% vol. comp) | Proteus vulgaris; 0.5 mL CPC (0.064% vol. comp) | Proteus vulgaris; 0.6 mL CPC (0.128% vol. comp) | Proteus vulgaris; 0.7 mL CPC (0.256% vol. comp) | Proteus vulgaris; 0.8 mL CPC (0.512% vol. comp) | Proteus vulgaris; 0.9 mL CPC (1.024% vol. comp) | Proteus vulgaris; 1.0 mL CPC (2.048% vol. comp) | Staph aureus (MRSA); 0.1 mL CPC (0.004% vol. comp) | Staph aureus (MRSA); 0.2 mL CPC (0.008% vol. comp) | Staph aureus (MRSA); 0.3 mL CPC (0.016% vol. comp) | Staph aureus (MRSA); 0.4 mL CPC (0.032% vol. comp) | Staph aureus (MRSA); 0.5 mL CPC (0.064% vol. comp) | Staph aureus (MRSA); 0.6 mL CPC (0.128% vol. comp) | Staph aureus (MRSA); 0.7 mL CPC (0.256% vol. comp) | Staph aureus (MRSA); 0.8 mL CPC (0.512% vol. comp) | Staph aureus (MRSA); 0.9 mL CPC (1.024% vol. comp) | Staph aureus (MRSA); 1.0 mL CPC (2.048% vol. comp) | Staph aureus (non MRSA); 0.1 mL CPC (0.004% vol. comp) | Staph aureus (non MRSA); 0.2 mL CPC (0.008% vol. comp) | Staph aureus (non MRSA); 0.3 mL CPC (0.016% vol. comp) | Staph aureus (non MRSA); 0.4 mL CPC (0.032% vol. comp) | Staph aureus (non MRSA); 0.5 mL CPC (0.064% vol. comp) | Staph aureus (non MRSA); 0.6 mL CPC (0.128% vol. comp) | Staph aureus (non MRSA); 0.7 mL CPC (0.256% vol. comp) | Staph aureus (non MRSA); 0.8 mL CPC (0.512% vol. comp) | Staph aureus (non MRSA); 0.9 mL CPC (1.024% vol. comp) | Staph aureus (non MRSA); 1.0 mL CPC (2.048% vol. comp) | Candida albicans; 0.1 mL CPC (0.004% vol. comp) | Candida albicans; 0.2 mL CPC (0.008% vol. comp) | Candida albicans; 0.3 mL CPC (0.016% vol. comp) | Candida albicans; 0.4 mL CPC (0.032% vol. comp) | Candida albicans; 0.5 mL CPC (0.064% vol. comp) | Candida albicans; 0.6 mL CPC (0.128% vol. comp) | Candida albicans; 0.7 mL CPC (0.256% vol. comp) | Candida albicans; 0.8 mL CPC (0.512% vol. comp) | Candida albicans; 0.9 mL CPC (1.024% vol. comp) | Candida albicans; 1.0 mL CPC (2.048% vol. comp) | Strep pyogenes; 0.1 mL CPC (0.004% vol. comp) | Strep pyogenes; 0.2 mL CPC (0.008% vol. comp) | Strep pyogenes; 0.3 mL CPC (0.016% vol. comp) | Strep pyogenes; 0.4 mL CPC (0.032% vol. comp) | Strep pyogenes; 0.5 mL CPC (0.064% vol. comp) | Strep pyogenes; 0.6 mL CPC (0.128% vol. comp) | Strep pyogenes; 0.7 mL CPC (0.256% vol. comp) | Strep pyogenes; 0.8 mL CPC (0.512% vol. comp) | Strep pyogenes; 0.9 mL CPC (1.024% vol. comp) | Strep pyogenes; 1.0 mL CPC (2.048% vol. comp) | P. aeruginosa; 0.1 mL CPC (0.004% vol. comp) | P. aeruginosa; 0.2 mL CPC (0.008% vol. comp) | P. aeruginosa; 0.3 mL CPC (0.016% vol. comp) | P. aeruginosa; 0.4 mL CPC (0.032% vol. comp) | P. aeruginosa; 0.5 mL CPC (0.064% vol. comp) | P. aeruginosa; 0.6 mL CPC (0.128% vol. comp) | P. aeruginosa; 0.7 mL CPC (0.256% vol. comp) | P. aeruginosa; 0.8 mL CPC (0.512% vol. comp) | P. aeruginosa; 0.9 mL CPC (1.024% vol. comp) | P. aeruginosa; 1.0 mL CPC (2.048% vol. comp) | Strep equi; 0.1 mL CPC (0.004% vol. comp) | Strep equi; 0.2 mL CPC (0.008% vol. comp) | Strep equi; 0.3 mL CPC (0.016% vol. comp) | Strep equi; 0.4 mL CPC (0.032% vol. comp) | Strep equi; 0.5 mL CPC (0.064% vol. comp) | Strep equi; 0.6 mL CPC (0.128% vol. comp) | Strep equi; 0.7 mL CPC (0.256% vol. comp) | Strep equi; 0.8 mL CPC (0.512% vol. comp) | Strep equi; 0.9 mL CPC (1.024% vol. comp) | Strep equi; 1.0 mL CPC (2.048% vol. comp)
